{"source": "patent US7163956B2", "about": "“Substituted fullerene compositions and their use as antioxidants” (C Sixty Inc., priority 2003, dated 2007)", "origin": "cited, not measured here", "test_system": "mice", "conditions": "oral administration, about 0.5 mg/kg/day"}
{"substance": "(C60(>C(COOH)2)3) [C3]", "values": [{"measurement": "increase in mean survival relative to controls", "result": "~20", "unit": "%"}, {"measurement": "mean survival", "setting": "controls 23.5+/−5.5 months, p=0.033", "result": "28.7+/−3.3 months"}]}
